These results are taken from article PMC6394990, “Detailed characterization of the solution kinetics and thermodynamics of biotin, biocytin and HABA binding to avidin and streptavidin” (PLoS ONE, 2019).

Test [1] addresses T1, avidin (AV) (Gallus gallus, UniProt P02701).
T1 construct: purchased Calbiochem (La Jolla, CA)
Description: Literature calorimetry reaction thermodynamics. The format is binding. The settings on record: AV-B7, average of the reported values.

Test [2] has as its target T1, avidin (AV). Conditions: AV-B7, cited from earlier work.

Where “and” joins values, the source holds several entries; their conditions need not be identical. Identical values can stand only once. Like-named read-outs stand apart in the source and are kept apart here. Marks after values point to notes of the source that are not given here.

T1 sequence (P02701 25-152): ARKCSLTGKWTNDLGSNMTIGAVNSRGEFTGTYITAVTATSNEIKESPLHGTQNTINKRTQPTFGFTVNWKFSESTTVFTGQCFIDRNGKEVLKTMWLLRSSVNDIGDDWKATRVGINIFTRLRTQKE

As to `O=C(O)CCCC[C@@H]1SC[C@@H]2NC(=O)N[C@@H]21` [B7, d-biotin], the “ΔG°rxn, averaged value” was -20.7 ± 0.3 kcal/mol at avidin (AV) [1] and -20.7 ± 1.0 kcal/mol at avidin (AV) [1] (listed as B). Further, the “ΔH°rxn, averaged value” is -23.2 ± 1.7^d kcal/mol and -23.2 ± 1.7 d kcal/mol on avidin (AV) [1]; -23.2 ± 1.0 kcal/mol on avidin (AV) [1] (listed as B). Further, the “ΔH°rxn” value on avidin (AV) [2] (ref 39) is -26.7 kcal/mol and -26.7 36 kcal/mol; on avidin (AV) [2] (ref 39, listed as B), -26.7 20 kcal/mol; at avidin (AV) [2] (ref 76), -20.3 ± 0.3 kcal/mol and -20.3 ± 0.377 kcal/mol; at avidin (AV) [2] (ref 76, listed as B) it was -20.3 ± 0.3 50 kcal/mol; at avidin (AV) [2] (ref 77) it was -22.5 ± 0.1 kcal/mol and -22.5 ± 0.1 78 kcal/mol; at avidin (AV) [2] (ref 77, listed as B), -22.5 ± 0.1 52 kcal/mol. The “ΔH°rxn” value on avidin (AV) [2] (ref 78) is -23.4 ± 0.3 kcal/mol and -23.4 ± 0.3 79 kcal/mol; at avidin (AV) [2] (ref 78, listed as B) it was -23.4 ± 0.3 51 kcal/mol. The “ΔG°rxn” value at avidin (AV) [2] (ref 76) was -20.5 kcal/mol and -20.5 77 kcal/mol; at avidin (AV) [2] (ref 76, listed as B), -20.5 50 kcal/mol; on avidin (AV) [2] (ref 78) it was -20.8 kcal/mol and -20.8 79 kcal/mol; on avidin (AV) [2] (ref 78, listed as B) it was -20.8 51 kcal/mol. Moreover, the “ΔS°rxn” value was -8.9 [78] cal/mol°K and -8.9 79 cal/mol°K at avidin (AV) [2] (ref 78); -8.9 51 cal/mol°K at avidin (AV) [2] (ref 78, listed as B).
